System: glucosyltransferase
Experiment: Inhibition of water-insoluble glucan formation by crude glucosyltransferase (14C-sucrose, scintillation counting)
Assay type: biochemical, Streptococcus mutans OMZ 176
Settings: Water-insoluble glucan formation vs control, 60 minutes at 37°C, pH 6.8
Protocol: Crude glucosyltransferase was refined from Streptococcus mutans OMZ 176 according to the method described by Mukasa and Slads in Infect. Immun., 8, 555 (1973) and 9, 419 (1974).
The above GTF, labeled sucrose and the tea polyphenol compounds were mixed together to the following final concentrations, and was regulated with a 50 mM phosphate buffer (with pH 6.8). GTF: 0.34 mg protein/ml 0.1 mM (¹⁴C) sucrose: 0.1 »Ci/»l Present agent: 1 to 10 mg/ml or 1 to 10 mM.
Twenty (20) »l of the mixture solution were subjected to a reaction for 60 minutes at 37°C. After the completion of the reaction, 5 »l of the reaction mixture and 5 »l of supernatant obtained by centrifugation of the reaction mixture at 5,500 x g for 3 minutes were applied to a filter paper respectively, and then developed with a developing solution of butanol-pyridine-water (6:4:3), followed by counting with a scintillation counter. The amount of water-insoluble glucan was found by a difference between the measurements of the reaction mixture and the supernatant. The GTF inhibiting ability is expressed in terms of the rate of inhibiting the formation of water-insoluble glucan with respect to a control to which the tea polyphenol compounds were not added.

Compound | Inhibition (%) (sample concentration 1.0 mM) | Inhibition (%) (sample concentration 10.0 mM)
Oc1cc(O)c2c(c1)O[C@H](c1ccc(O)c(O)c1)[C@@H](O)C2 [(+)-Catechin] | 22% | 62%
Oc1cc(O)c2c(c1)O[C@@H](c1ccc(O)c(O)c1)[C@@H](O)C2 [(+)-Epicatechin] | 12% | 42%
Oc1cc(O)c2c(c1)O[C@H](c1cc(O)c(O)c(O)c1)[C@@H](O)C2 [(+)-Gallocatechin] | 15% | 51%
O=C(O[C@@H]1Cc2c(O)cc(O)cc2O[C@H]1c1cc(O)c(O)c(O)c1)c1cc(O)c(O)c(O)c1 [(-)-Gallocatechin gallate] | 47% | 95%
O=c1c(O)cc([C@H]2Oc3cc(O)cc(O)c3C[C@H]2O)cc2c([C@H]3Oc4cc(O)cc(O)c4C[C@H]3O)cc(O)c(O)c12 [Free theaflavin] | 57% | 98%
O=C(O[C@@H]1Cc2c(O)cc(O)cc2O[C@@H]1c1cc(O)c(=O)c2c(O)c(O)cc([C@H]3Oc4cc(O)cc(O)c4C[C@H]3OC(=O)c3cc(O)c(O)c(O)c3)c2c1)c1cc(O)c(O)c(O)c1 [Theaflavin digallate] | 56% | 98%
O=C(O[C@@H]1Cc2c(O)cc(O)cc2O[C@@H]1c1cc(=O)c(O)c2c(O)c(O)cc([C@H]3Oc4cc(O)cc(O)c4C[C@H]3O)c2c1)c1cc(O)c(O)c(O)c1 [Theaflavin monogallate A] | 64% | 97%
O=C(O[C@@H]1Cc2c(O)cc(O)cc2O[C@@H]1c1cc(O)c(O)c2c(=O)c(O)cc([C@H]3Oc4cc(O)cc(O)c4C[C@H]3O)cc12)c1cc(O)c(O)c(O)c1 [Theaflavin monogallate B] | 47% | 98%
(-)-Catechin | 15% | 45%
(-)-Epicatechin | 5% | 42%
(-)-Epicatechin gallate | 35% | 83%
(-)-Gallocatechin | 20% | 30%
